Patent US11213509B2, “Compositions and methods for treating traumatic brain injury” (Ischemix, LLC, priority 2017, dated 2022)

Assays:
[1] = system: rat model of focal TBI; assay: Morris water maze, rat model of focal TBI (BCCI); format: in vivo; conditions: for Improvement in escape latency relative to Day 1 / Morris water maze escape latency: 30 mg/kg; for Morris water maze escape latency: vs saline
Description: BCCI TBI to the medial frontal cortex (MFC) was induced by a cortical contusion device (Custom Design & Fabrication, Inc [CDF], Richmond, Va.). This device creates a reliable contusion injury to the exposed area of the brain with a brass-tipped impounder. (Hoffman et al., 1994). Rats were anesthetized with isoflurane (5%) (Novaplus™), and 02 (300 cm^3/min), and mounted in a stereotaxic frame. Under aseptic conditions, a sagittal incision was made in the scalp and the fascia retracted to expose the cranium. Then, a 6-mm diameter trephine drill was used to open the skull immediately anterior to the bregma. TBI of the MFC was made with a 5-mm-diameter rounded brass impactor attached to a computer-controlled piston propelled electronically with following parameters: velocity=2.5 m/s; depth=3 mm; duration=100 ms). After BCCI, any cortical surface hemorrhaging was controlled and the fascia and scalp sutured. The animals were allowed to recover in a warmed recovery chamber and appropriate post-operative care was taken. Treatment was delivered 30 minutes after injury and at approximately 24 hrs after injury. Two weeks after injury, rats were tested in the Morris water maze (MWM). The MWM is a well-characterized test of spatial learning and memory in rodents. The objective of the MWM is to teach rats that there is an escape platform located somewhere in a large, water filled pool. The rats are naturally motivated to escape the pool. The rats use extra-maze visual cues to locate the position of a submerged platform over a series of trials. The MWM test was conducted beginning at day 14 after traumatic brain injury. Rats were acclimated to the test room at least 1 hour prior to testing. The MWM consists of a circular pool (160 cm diameter×50 cm height) containing water that was made opaque with non-toxic black paint in order to hide the escape platform (see FIG. 4A). The water temperature was kept at 25±1° C. The water surface was 15 cm from the rim of the pool, and the inner wall was always carefully wiped to eliminate any local cues. The pool was located in a large room with a number of extra-maze visual cues, including highly visible geometric images (squares, triangles, circles, etc.) hung on the wall, diffuse lighting, and curtains to hide the experimenter and the awaiting rats. Behavior was tracked by a video camera hanging above the pool. Video tracking software (ANY-maze) recorded and analyzed the behavior of the animal in the pool. After training, the rats were gently dried with clean paper towels and placed in a warmed holding cage for the rats to dry before being returned to their home cage. Training: During training, the rat was placed into the water facing the wall of the pool and allowed to search for the platform. If the rat found the platform within 60 seconds, the trial was stopped, and the rat was allowed to stay on the platform for 30 seconds before being moved. If the platform was not found within 60 seconds, rats were placed on the platform for 30 sec in order to allow them time to learn the position of the platform in relation of the room's visual cues. Rats were given 4 trials a day for 4 days (days 14 to 17), with a 30 second interval between trials. The starting point was randomly rotated for every rat in each trial. Probe Trial: On the fifth day (day 18 after surgery), the rats received a probe trial. The probe test consisted of placing the animal in the pool for 60 seconds without the platform and monitoring the time spent in the four quadrants of the pool (see FIG. 4B). An animal that has learned the position of the platform will spend more time searching that target quadrant of the pool. During training, a submerged hidden target platform is placed in the pool and this region is defined as the target quadrant (see FIG. 4A). During the probe trial, the platform is removed and the duration of swimming in the different quadrants is tracked by the video camera and computer. […]

[2] = system: lipid peroxidation (4-HNE); assay: Lipid peroxidation by 4-hydroxynonenal (4-HNE) Western blot, focal TBI model in piglets; format: in vivo; conditions: cortical penumbra, ipsilateral; vs placebo, p<0.001
Method: Study Design: A blinded, placebo controlled proof of concept trial of CMX-2043 was conducted in four-week-old piglets (8-10 kg). […] Sixteen piglets (n=16) were designated into three cohorts: 1) Controlled cortical impact (CCI) at the rostral gyrus treated with a bolus of CMX-2043 (n=5), 2) CCI injured animals treated with placebo (n=5) and 3) sham animals (n=6). CMX-2043 treated animals received an intravenous loading bolus of CMX-2043 (13.4 mg/kg) 1 hour post-TBI and a 4.5 mg/kg bolus at 13 hours post-TBI. Subjects were intubated, ventilated and anesthesia maintained on isoflurane (1.0%). Buprenorphine (0.02 mg/kg IM) was administered for analgesia immediately following intubation. Monitors recorded oxygen saturation, heart rate, respiration rate, rectal temperature, and end tidal CO2. […] All piglets were sacrificed between 24-25 hours post-TBI.
Samples from the same ipsilateral injured region analyzed for mtROS were analyzed for oxidative damage by measuring 4-HNE as an assessment of lipid peroxidation by Western Blot analysis (EMD Millipore), normalized by GAPDH (EMD Millipore), and compared to placebo and shams.

[3] = day 18 following surgery, 30 mg/kg vs saline

CC(NC(=O)C(CCC(=O)O)NC(=O)CCCCC1CCSS1)C(=O)O [CMX-2043, N—(R)-lipoyl-glutamylalanine]
Improvement in escape latency relative to Day 1 ([1]; Day 2 of training): 4.9 s | Improvement in escape latency relative to Day 1 ([1]; Day 3 of training): 8.7 s | Improvement in escape latency relative to Day 1 ([1]; Day 4 of training, significantly better than saline): 24.2 s | Morris water maze escape latency ([1]; day 1 of training): longer latency times than saline treated animals | Probe trial number of entries into the platform zone [1, 3]: did not reveal a significant difference | Probe trial time spent in the target quadrant [1, 3]: did not show an overall difference | Morris water maze escape latency ([1]; final training day): significantly faster escape latency | Morris water maze escape latency ([1]; training days 2 and 3): no differences between groups | Morris water maze swim distance ([1]; training, 30 mg/kg vs saline): no difference | Morris water maze swim speed ([1]; training, 30 mg/kg vs saline): no difference | Lipid peroxidation (4-HNE) [2]: significant reduction in lipid peroxidation
